From US11123398B2, “Chemotherapeutic combinations of cationic antimicrobial peptides and chemotherapeutics” (LYTIX BIOPHARMA AS, priority 2014, dated 2021) come the findings set out here.

One assay has as its system Hep G2 cell line. The format is cell-based, human. The note with it: 4 h. Here is the method:
(§1) Tumor cells were plated in 96-well flat-bottom microtitration plates (Nunc, Dutscher, Brumath, France) and incubated at 37° C. for 24 hours before treatment in 190 μl of drug-free culture medium supplemented or not with 10% FBS for adherent or suspension growing cell lines, respectively.
(§2) The adherent cell lines were washed once with 200 μl FBS-free culture medium before treatment. Tumor cells were incubated for 4 hours with 10 concentrations of compounds in ¼ dilution step with a top dose of 400 μM (range 4×10^−4 to 4×10^−10 M), with 1% (final concentration) Triton X-100 as positive control and FBS-free culture medium as negative control. The cells (190 μl) were incubated in a 200 μl final volume of FBS-free culture medium containing test substances at 37° C. under 5% CO2.
(§3) Three independent experiments were performed, each concentration being tested in quadruplicate. Control cells were treated with vehicle alone. At the end of treatments, the cytotoxic activity was evaluated by a MTS assay (see § 3.3.).
(§4) Like MTT, MTS is bioreduced by cells into a formazan product that is directly soluble in culture medium without processing, unlike MTT.
(§5) At the end of the cells treatment, 40 μl of a 0.22 μm filtered freshly combined solution of MTS (20 ml at 2 mg/ml, Ref G1111, Batch 235897, Exp March 2009, Promega, Charbonnières, France) and PMS (1 ml at 0.92 mg/ml, Ref P9625, Batch 065K0961, Sigma) in Dulbecco's Phosphate Buffered Saline (DPBS, Ref 17-513Q, Batch 6MB0152, Cambrex), were added in each well. Culture plates were incubated for 2 h at 37° C. Absorbency (OD) were measured at 490 nm in each well using VICTOR^3™ 1420 multilabeled counter (Wallac, PerkinElmer, Courtaboeuf, France).
(§6) IC50: drug concentration to obtain a 50% inhibition of cell proliferation.
(§7) The dose-response curves were plotted using XLFit 3 (IDBS, United Kingdom). The IC50 determination values were calculated using the XLFit 3 software from semi-log curves. Individual IC50 determination values as well as mean and SD values were generated.

Another assay relates to T-47D cell line. It counts as cell-based, human. Particulars: 4 h. On the procedure:
as §1, §2, §3, §4, §5, §6, §7

Assay [1] has as its system panel of 37 human cancer cell lines. It counts as cell-based. The note with it: for IC50: 4 h; for IC50 range against 37 human cancer cell lines: conclusion. Here is the method: The adherent cell lines were washed once with 200 μl FBS-free culture medium before treatment. […] compounds in ¼ dilution step with a top dose of 400 μM (range 4×10^−4 to 4×10^−10 M), with 1% (final concentration) Triton X-100 as positive control and FBS-free culture medium as negative control. The cells (190 μl) were incubated in a 200 μl final volume of FBS-free culture medium containing test substances at 37° C. under 5% CO2.
as §3, §4, §5, §6, §7

For a further assay, the system named is HL-60/ADR. As to the kind of experiment: MTS cytotoxicity assay, HL-60/ADR. It counts as cell-based, human. The note with it: IC50 resistant / IC50 sensitive line; doxorubicin resistance. On the procedure:
as §1, §2, §3, §4, §5, §6, §7
(§8) Resistance index was calculated using the following formula: […]
(§9) Resistance index was calculated for each compound for each couple of sensitive and resistant cell lines. Individual resistance index was calculated when IC50 values of both sensitive and corresponding resistant cell lines were determined within same experiment. In addition, resistance index was also calculated ratio of mean IC50 values obtained during three independent experiments.
(Tetrazolium dyes change colour on reduction, which living cells bring about.)

Another assay relates to MCF-7/mdr. As to the kind of experiment: MTS cytotoxicity assay, MCF-7/mdr. It counts as cell-based, human. Particulars: IC50 resistant / IC50 sensitive line; doxorubicin resistance. Here is the method:
as §1, §2, §3, §4, §5, §6, §7, §8, §9

The test system of a further assay is IGROV-1/CDDP. The assay can be described thus: MTS cytotoxicity assay, IGROV-1/CDDP. The format is cell-based, human. The note with it: IC50 resistant / IC50 sensitive line; cisplatin resistance. Here is the method:
as §1, §2, §3, §4, §5, §6, §7, §8, §9

The subject of another assay is Hs 445 cell line. It counts as cell-based, human. Particulars: 4 h. On the procedure: (§10) Tumor cells were plated in 96-well flat-bottom microtitration plates (Nunc, Dutscher, Brumath, France) and incubated at 37° C. for 24 hours before treatment in 190 μl of drug-free and FBS-free culture medium.
(§11) Tumor cells were incubated for 4 hours with 10 concentrations of compounds in ¼ dilution step with a top dose of 400 μM (range 4×10^−4 to […]), with 1% (final concentration) Triton X-100 as positive control and FBS-free culture medium as negative control. The cells (190 μl) were incubated in a 200 μl final volume of FBS-free culture medium containing test substances at 37° C. under 5% CO2.
(§12) Three independent experiments were performed, each concentration being issued from quadruplicate. Control cells were treated with vehicle alone. At the end of treatments, the cytotoxic activity was evaluated by a MTS assay (see § 3.3 below).
as §4, §5
(§13) 4.1. IC50 Data was Determined as in Example 1

The test system of the next assay is Raji cell line. The format is cell-based, human. Particulars: 4 h. On the procedure: as §10, §11, §12, §4, §5, §13
Assay [2] concerns panel of 10 lymphoma cell lines. The format is cell-based, human. The note with it: conclusion. Here is the method:
as §10
[…] compounds in ¼ dilution step with a top dose of 400 μM (range 4×10^−4 to […]), with 1% (final concentration) Triton X-100 as positive control and FBS-free culture medium as negative control. The cells (190 μl) were incubated in a 200 μl final volume of FBS-free culture medium containing test substances at 37° C. under 5% CO2.
as §12, §4, §5, §13

The subject of another assay is U-87 MG cell line. The format is cell-based, human. The note with it: 4 h. Here is the method:
as §1, §2, §3, §4, §5, §6, §7

A further assay relates to CCRF-CEM/VLB. The assay can be described thus: MTS cytotoxicity assay, CCRF-CEM/VLB. It counts as cell-based, human. The note with it: IC50 resistant / IC50 sensitive line. On the procedure: as §1
The adherent cell lines were washed once with 200 μl FBS-free culture medium before treatment. Tumor cells were incubated for 4 hours with 10 concentrations of compounds in ¼ dilution step with a top dose of 400 μM (range 4×10^−4 to 4×10^−10 M), with 1% (final concentration) Triton X-100 as positive control and FBS-free culture medium as negative control. […]
Three independent experiments were performed, each concentration being tested in quadruplicate. […] At the end of treatments, the cytotoxic activity was evaluated by a MTS assay (see § 3.3.). […]
At the end of the cells treatment, 40 μl of a 0.22 μm filtered freshly combined solution of MTS (20 ml at 2 mg/ml, Ref G1111, Batch 235897, Exp March 2009, Promega, Charbonnières, France) and PMS (1 ml at 0.92 mg/ml, Ref P9625, Batch 065K0961, Sigma) in Dulbecco's Phosphate Buffered Saline (DPBS, Ref 17-513Q, Batch 6MB0152, Cambrex), were added in each well. […] Absorbency (OD) were measured at 490 nm in each well using VICTOR^3™ 1420 multilabeled counter (Wallac, PerkinElmer, Courtaboeuf, France). […]
as §8

For the next assay, the system named is A375 cells. As to the kind of experiment: Confocal microscopy with fluorescence-labeled peptide (internalization). The note with it: 3 μM and 1.5 μM, 30-60 min. The format is cell-based, human. Here is the method:
Subconfluential A375 cells were seeded at 8,000 cells/well as above, and transfected on the second day using the Lipofectamine LTX with Plus transfection reagents (Invitrogen) following the manufacturer's protocol. The mitochondria were labeled using the pDsRed2-Mito, and the nucleus was labeled using the GFP-Histon2B plasmid (Imaging Platform, University of Tromsø). A day after transfection, cells were washed twice with serum-free RPMI, and treated at different concentration and incubation periods with LTX-315 Pacific Blue or LTX-328 Pacific Blue. […] Control cells were treated with unlabeled LTX-315 and also with serum-free RPMI only. After incubation, cells were fixed with 4% paraformaldehyde in PBS, and the wells were covered with Prolong Gold antifade (Invitrogen). Cells were further analyzed by use of a Leica TCS SP5 confocal microscope, with a […] objective. Pacific Blue, GFP and Ds Red were excited using UV, with 488 and 561 lasers, and fluorescence channels were sequentially detected using the following band passes: UV: 420-480 nm (with attenuation), 488: 501-550 nm and 561: 576-676 nm.

Non-standard residues stand in square brackets, D forms with d. Residues, ends and D or L forms follow the SMILES beside them. No end group written: not given here. dBip = N[C@H](Cc1ccc(-c2ccccc2)cc1)C(=O)O; Dip = N[C@H](C(=O)O)C(c1ccccc1)c1ccccc1

On to `N=C(N)NCCC[C@H](NC(=O)[C@H](Cc1c[nH]c2ccccc12)NC(=O)[C@H](Cc1c[nH]c2ccccc12)NC(=O)[C@H](CCCNC(=N)N)NC(=O)[C@H](CCCNC(=N)N)NC(=O)[C@@H](NC(=O)[C@H](Cc1c[nH]c2ccccc12)NC(=O)[C@H](CCCNC(=N)N)NC(=O)[C@@H](N)CCCNC(=N)N)C(c1ccccc1)c1ccccc1)C(N)=O` [LTX-320, R-R-W-Dip-R-R-W-W-R-NH2] (H-RRW[Dip]RRWWR-NH2; N-terminus assumed), for which the IC50 in the assay on Hep G2 cell line was 16.6 ± 3.15 µM; in the assay with T-47D cell line, 3.46 ± 0.22 µM; in [1], 7.58 ± 2.79 µM; with Hs 445 cell line, 2.22 µM; with Raji cell line it was 11.3 ± 3.42 µM. For the same molecule, in [1], the “IC50 range against 37 human cancer cell lines” value is “micromolar to ten micromolar range”. In the assay with HL-60/ADR, the “Resistance index (RI), HL-60/ADR” value is 0.90. In the assay with MCF-7/mdr, the “Resistance index (RI), MCF-7/mdr” value is given as 1.19. The “Resistance index (RI), IGROV-1/CDDP” value in the assay on IGROV-1/CDDP is recorded as 0.49. Further, the “IC50 range against 10 human lymphoma cell lines” value in assay [2] is given as “micromolar range”.

As for `NCCCC[C@@H](N)C(=O)N[C@H](CCCCN)C(=O)N[C@H](Cc1ccc(-c2ccccc2)cc1)C(=O)N[C@H](Cc1c[nH]c2ccccc12)C(=O)N[C@H](CCCCN)C(=O)N[C@H](CCCCN)C(=O)N[C@H](Cc1c[nH]c2ccccc12)C(=O)N[C@H](Cc1c[nH]c2ccccc12)C(=O)N[C@H](CCCCN)C(N)=O` [LTX-329, k-k-bip-w-k-k-w-w-k-NH2] (H-[dK][dK][dBip][dW][dK][dK][dW][dW][dK]-NH2; N-terminus assumed), the IC50 in the assay with T-47D cell line was determined as 2.43 ± 0.34 µM; in the assay with U-87 MG cell line, 16.9 ± 1.18 µM; in [1], 8.17 ± 3.2 µM; with Hs 445 cell line, 2.46 µM; in the assay on Raji cell line it was 8.7 ± 1.7 µM. The “IC50 range against 37 human cancer cell lines” value in assay [1] was “micromolar to ten micromolar range”. Besides, the “Resistance index (RI), HL-60/ADR” value with HL-60/ADR worked out at 0.80. Also, the “Resistance index (RI), MCF-7/mdr” value in the assay on MCF-7/mdr is given as 1.07. In the assay on IGROV-1/CDDP, the “Resistance index (RI), IGROV-1/CDDP” value was 0.46. Further, in the assay on CCRF-CEM/VLB, the “Resistance index (RI), CCRF-CEM/VLB” value is 0.76. Besides, in assay [2], the “IC50 range against 10 human lymphoma cell lines” value is reported as “micromolar range”.

Consider “K-A-Q-Dip-Q-K-Q-A-W-NH2 (KAQ[Dip]QKQAW-NH2; N-terminus assumed; SMILES C[C@H](NC(=O)[C@H](CCC(N)=O)NC(=O)[C@H](CCCCN)NC(=O)[C@H](CCC(N)=O)NC(=O)[C@@H](NC(=O)[C@H](CCC(N)=O)NC(=O)[C@H](C)NC(=O)[C@@H](N)CCCCN)C(c1ccccc1)c1ccccc1)C(=O)N[C@@H](Cc1c[nH]c2ccccc12)C(N)=O) [LTX-328, reference compound]”, for which, in the assay on A375 cells, the “Internalization of Pacific Blue-labeled peptide” value is reported as “did not demonstrate any internalization at any concentration or incubation time tested”.

One may read the IC50 as the point on the concentration scale where inhibition reaches its midpoint. A lower IC50 goes with inhibition by little substance.
